pEC50, pIC50: −log10 of the molar value. Blank lines part the entries; values can stand above or below the compound they belong to.
Legend:
[1] = target: T1, Transcriptional activator protein LasR (Pseudomonas aeruginosa (strain ATCC 15692 / PAO1 / 1C / PRS 101 / LMG12228), UniProt P25084); test: Antagonist activity at Pseudomonas aeruginosa LasR transfected with lasB-GFP by […] method
T1 sequence (P25084 whole entry): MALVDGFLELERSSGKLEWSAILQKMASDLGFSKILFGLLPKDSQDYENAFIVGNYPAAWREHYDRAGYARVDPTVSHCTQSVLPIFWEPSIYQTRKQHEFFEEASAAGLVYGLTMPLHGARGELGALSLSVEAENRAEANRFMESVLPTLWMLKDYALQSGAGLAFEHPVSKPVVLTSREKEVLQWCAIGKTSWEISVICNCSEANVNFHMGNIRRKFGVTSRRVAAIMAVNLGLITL

[2] = Inhibition of LasR in Escherichia coli JLD271 harboring pSC11/pJN105L using CPRG as substrate incubated for 4 hrs by Miller assay method
[3] = Activation of LasR in Escherichia coli JLD271 harboring pSC11/pJN105L using CPRG as substrate incubated for 4 hrs by Miller assay method
[4] = target: T1, Transcriptional activator protein LasR; test: Antagonist activity at LasR in Pseudomonas aeruginosa harboring plasI-LVAgfp assessed as inhibition of GFP production incubated for 6 hrs by fluorescence method
[5] = Antagonist activity at LasR in Escherichia coli JLD271 harboring pSC11/ pJN105L using CPRG as substrate incubated for 4 hrs by Miller assay
Pseudomonas aeruginosa [6] = test: Inhibition of LasI/LasR in Pseudomonas aeruginosa ATCC 9027 assessed as reduction in protein-mediated transition from microcolonies to mature biofilm at 400 uM incubated for 22 hrs by crystal violet staining assay relative to control
[7] = system: Chromobacterium violaceum; test: Inhibition of CviI/CviR in Chromobacterium violaceum ATCC 31532 assessed as reduction in violacein production at 40 uM incubated for 24 hrs relative to control
Pseudomonas aeruginosa [8] = test: Inhibition of LasI/LasR in Pseudomonas aeruginosa ATCC 15422 assessed as reduction in protein-mediated transition from microcolonies to mature biofilm at 400 uM incubated for 22 hrs by crystal violet staining assay relative to control
[9] = system: Pseudomonas aeruginosa PAO1; test: Inhibition of LasI/LasR in Pseudomonas aeruginosa PAO1 assessed as reduction in protein-mediated transition from microcolonies to mature biofilm at 400 uM incubated for 22 hrs by crystal violet staining assay relative to control
[10] = Inhibition of CviI/CviR in Chromobacterium violaceum ATCC 31532 assessed as reduction in violacein production incubated for 24 hrs
[11] = system: Pseudomonas aeruginosa PAO1; test: Inhibition of LasI/LasR in Pseudomonas aeruginosa PAO1 assessed as reduction in swarming motility at 400 uM incubated for 18 hrs relative to control
[12] = target: T2, Regulatory protein SdiA (Escherichia coli (strain K12)) (UniProt P07026); test: Inhibition of sdiA in Escherichia coli K-12 assessed as reduction in protein-mediated transition from microcolonies to mature biofilm at 400 uM incubated for 22 hrs by crystal violet staining assay relative to control
T2 sequence (whole entry): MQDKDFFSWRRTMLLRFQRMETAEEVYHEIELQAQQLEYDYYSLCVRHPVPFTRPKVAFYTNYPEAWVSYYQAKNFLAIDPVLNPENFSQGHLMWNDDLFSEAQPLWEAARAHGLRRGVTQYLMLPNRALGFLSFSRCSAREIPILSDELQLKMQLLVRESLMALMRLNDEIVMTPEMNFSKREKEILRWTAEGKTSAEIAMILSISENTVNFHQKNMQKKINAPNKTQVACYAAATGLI

RAW264.7 = test: Cytotoxicty against mouse RAW264.7 cells at 100 uM after 24 hrs by CellTiter Glo assay relative to control; format: cell-based; conditions: raw264.7, 24 h
HL = test: Cytotoxicty against human HL cells at 100 uM after 24 hrs by CellTiter Glo assay relative to control; format: cell-based
[13] = target: T3, Transcriptional activator protein LuxR (Aliivibrio fischeri, UniProt P12746); test: Antagonist activity at Aliivibrio fischeri LuxR by luminescence method
T3 sequence (P12746 whole entry): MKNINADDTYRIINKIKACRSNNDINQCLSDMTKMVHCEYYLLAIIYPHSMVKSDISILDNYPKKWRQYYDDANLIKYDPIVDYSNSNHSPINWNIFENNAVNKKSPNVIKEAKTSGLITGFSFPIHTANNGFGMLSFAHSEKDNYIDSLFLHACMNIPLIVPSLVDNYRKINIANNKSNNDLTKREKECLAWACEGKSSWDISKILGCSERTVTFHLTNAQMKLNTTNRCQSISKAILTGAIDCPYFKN

[14] = target: T3, Transcriptional activator protein LuxR; test: Agonist activity at Aliivibrio fischeri LuxR by luminescence method
[15] = target: T1, Transcriptional activator protein LasR; test: Inhibition of LasR in Pseudomonas aeruginosa PAO-JP2 harboring plasI-LVAgfp incubated for 6 hrs by fluorescence method
[16] = target: T3, Transcriptional activator protein LuxR; test: Antagonist activity at Aliivibrio fischeri ES114 LuxR after 4 to 8 hrs by luminescence method
[17] = Inhibition of quorum sensing system in Pseudomonas aeruginosa
[18] = target: T4, Transcriptional activator protein LasR (Pseudomonas aeruginosa (strain ATCC 15692 / PAO1 / 1C / PRS 101 / LMG12228)) (UniProt P25084); test: Antagonist activity at LasR in Pseudomonas aeruginosa PAO1 assessed as inhibition of pyocyanin production at 50 uM incubated for 13 hrs relative to control
T4 sequence (whole entry): T1 sequence (P25084 whole entry)

[19] = target: T1, Transcriptional activator protein LasR; test: Activation of LasR in Pseudomonas aeruginosa PAO-JP2 harboring plasI-LVAgfp incubated for 6 hrs by fluorescence method
[20] = target: T4, Transcriptional activator protein LasR (Pseudomonas aeruginosa (strain ATCC 15692 / PAO1 / 1C / PRS 101 / LMG12228)); test: Antagonist activity at LasR in Pseudomonas aeruginosa PAO-JP2 harboring plasI-LVAgfp assessed as inhibition of GFP expression by measuring reduction in fluorescence intensity at 100 uM incubated for 6 hrs in presence of AI1 by fluorescence based competitive assay relative to control

pIC50 [1]: 4.30
Compound: CCCCCCC[S+]([O-])CC(=O)NC1CCOC1=O (stereo not drawn)

pIC50 [2]: 6.80 | pEC50 [3]: 5.08
Compound: O=C(CCc1ccc(Br)cc1)N[C@H]1CCOC1=O

Compound: CCCCCCCCCNC(=O)CC(=O)Cc1ccccc1
pIC50 [4]: 4.82 | pIC50 [5]: 5.70

inhibition (Pseudomonas aeruginosa [6]): 27.2% | inhibition [7]: 99.7% | inhibition (Pseudomonas aeruginosa [8]): 11.2% | inhibition [9]: 42.3% | pIC50 [10]: 5.02 | inhibition [11]: 72.1% | inhibition [12]: 51.3%
Compound: CCC(=O)Oc1c(-c2ccccc2Cl)oc2ccccc2c1=O
Activity (RAW264.7): 97.7% | Activity (HL): 11.2%

pIC50 [2]: 5.64
Compound: CCCCCCCCCNC(=O)CC(=O)c1ccccc1

pIC50 [13]: 5.70
Compound: CCCCCS(=O)(=O)NC1CCOC1=O (stereo not drawn)

pIC50 [2]: 6.31 | pEC50 [3]: 4.48
Compound: O=C(CCCOc1ccc(Cl)cc1)N[C@H]1CCOC1=O

pEC50 [14]: 6.60
Compound: O=C(CC(=O)N[C@H]1CCOC1=O)CC1CCCC1

pEC50 [14]: 6.30
Compound: CC(C)CC(=O)CC(=O)N[C@H]1CCOC1=O

Compound: CCCCCCC(=O)N[C@H]1CCOC1=O
pIC50 [2]: 5.55 | pIC50 [15]: < 4.00 | pIC50 [16]: 5.85

pIC50 [13]: 5.19
Compound: CCCCCCS(=O)(=O)NC1CCOC1=O (stereo not drawn)

pIC50 [17]: 5.26
Compound: CCCCCCCCC(=O)CC(=O)Nc1ccccc1

Compound: O=C(CC(=O)NC1CCOC1=O)Cc1ccccc1Cl (stereo not drawn)
pIC50 [13]: 5.22

inhibition [18]: 74%
Compound: CCCCCCCCC(=O)CC(=O)Nc1cccc(OC)c1

Compound: O=C(CC(=O)NC1CCOC1=O)Cc1ccc(Cl)cc1 (stereo not drawn)
pIC50 [13]: 5.52

pIC50 [2]: 4.15
Compound: O=C(Nc1ccccc1NC(=O)c1cccc(Cl)c1)c1cccc(Cl)c1

pIC50 [1]: 4.30
Compound: Cc1ccc(SCC(=O)N[C@H]2CCOC2=O)cc1

Compound: CCC(=O)CC(=O)Nc1ccccc1O
pEC50 [19]: 4.77 | pEC50 [3]: 7.02

pIC50 [13]: 5.52 to 5.70
Compound: O=C(CCCc1ccccc1)NC1CCOC1=O (stereo not drawn)

pIC50 [13]: 4.40
Compound: CCCC(=O)CS(=O)(=O)NC1CCOC1=O (stereo not drawn)

Compound: CCCCCCCCS(=O)(=O)NC1CCOC1=O (stereo not drawn)
pIC50 [13]: 5.00

Compound: CCC(=O)CC(=O)NC1CCCCC1=O (stereo not drawn)
pEC50 [19]: < 3.70 | pIC50 [15]: < 4.00 | pEC50 [3]: 6.62

Compound: N#CSCC(=O)CC(=O)N[C@H]1CCOC1=O
pEC50 [19]: 5.59 | pEC50 [3]: 7.77

pEC50 [14]: < 5.22
Compound: O=C(CCCC1CCCCC1)NC1CCOC1=O (stereo not drawn)

pIC50 [16]: 5.96
Compound: O=C(Cc1ccc(-c2ccccc2)cc1)N[C@H]1CCOC1=O

pIC50 [13]: 5.05
Compound: CCCCCCCS(=O)(=O)NC1CCOC1=O (stereo not drawn)

Compound: CCCCS(=O)(=O)NC1CCOC1=O (stereo not drawn)
pIC50 [13]: 4.92

Compound: Cc1ccc(CC(=O)CC(=O)NC2CCOC2=O)cc1 (stereo not drawn)
pIC50 [13]: 5.40

Compound: CCCCCCCCCC(=O)CC(=O)CCNC1CCCCC1=O (stereo not drawn)
inhibition [20]: 35%

Compound: O=C(CC(=O)NC1CCOC1=O)Cc1ccc(Br)cc1 (stereo not drawn)
pIC50 [13]: 5.70

Compound: O=C(CC(=O)NC1CCOC1=O)Cc1ccc(C(F)(F)F)cc1 (stereo not drawn)
pIC50 [13]: 5.00
